Patent publication US11072632B2, “Inhibitors of 17β-HSD1, 17β-HSD3 and 17β-HSD10” (UNIVERSITÉ LAVAL, priority 2011, dated 2021)

What was measured:
human ERα = biological target: T1, human ERα (Homo sapiens, UniProt P03372); assay: ERα competitive binding assay (recombinant human ERα); details: FIG. 5B
T1 construct: purified full-length recombinant human ERα (Life Technologies, Grand Island, N.Y.); purchased Life Technologies
T1 sequence (P03372 1-595): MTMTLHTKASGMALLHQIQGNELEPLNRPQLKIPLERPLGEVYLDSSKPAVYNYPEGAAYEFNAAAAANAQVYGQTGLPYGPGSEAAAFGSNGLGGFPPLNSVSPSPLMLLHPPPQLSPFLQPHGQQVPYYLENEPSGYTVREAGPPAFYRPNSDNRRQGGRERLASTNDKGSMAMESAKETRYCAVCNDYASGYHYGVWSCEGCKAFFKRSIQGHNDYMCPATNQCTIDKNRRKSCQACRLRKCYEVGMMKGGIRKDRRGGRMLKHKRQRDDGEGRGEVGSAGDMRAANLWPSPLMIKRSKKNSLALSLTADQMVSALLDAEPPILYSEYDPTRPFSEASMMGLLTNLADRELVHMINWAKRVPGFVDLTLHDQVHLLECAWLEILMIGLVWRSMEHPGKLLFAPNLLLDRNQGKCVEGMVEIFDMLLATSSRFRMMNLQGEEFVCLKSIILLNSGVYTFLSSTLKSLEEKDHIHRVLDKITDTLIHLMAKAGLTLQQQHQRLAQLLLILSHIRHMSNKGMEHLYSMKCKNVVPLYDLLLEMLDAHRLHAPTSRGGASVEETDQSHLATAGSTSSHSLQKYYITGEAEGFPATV
Method: (§1) Non-specific binding was determined by incubation with an excess of cold estradiol (1 μM). After an overnight incubation at 4° C., 100 μl of cold 50% hydroxyapatite slurry was added to bind the receptor/ligand complex. After 15 minutes, 1 mL of wash buffer (40 mM Tris, 1 mM EDTA, 1 mM EGTA, 100 mM KCl, pH 7.4) was added and the tubes were centrifuged at 4500 rpm for 5 minutes at 4° C. The washing step was repeated twice. The radioactivity of the pellet was extracted by incubation with 1 mL of ethanol for 1 h at room temperature.
as §1, with “A competitive binding assay using a purified full-length recombinant human ERα (Life Technologies, Grand Island, N.Y.). […] Non-specific” for “Non-specific”, “E2” for “cold estradiol”, “μL” for “μl”

T-47D cells [1] = assay: Antiestrogenic activity, E2-induced T-47D proliferation; format: cell-based, human; details: E2 0.1 nM, compound 0.5 μM
Method: (§2) Quantification of cell growth was determined by using CellTiter 96®Aqueous Solution Cell Proliferation Assay (Promega, Nepean, ON, Canada) following the manufacturer's instructions. T-47D cells were resuspended with the medium supplemented with insulin (50 ng/mL) and 5% dextran-coated charcoal treated FBS rather than 10% FBS to remove remaining hormones. Aliquots (100 μL) of the cell suspension were seeded in 96-well plates (3000 cells/well). After 48 h, the medium was changed with a new one containing an appropriate concentration of products to be tested and was replaced every 2 days. Cells have grown either in absence or presence of the compounds for 7 days. To determine the proliferative (estrogenic) activity, the estrogen-sensitive T-47D cells were grown in absence (basal cell proliferation was fixed as 100%) or presence of compounds to be tested at 0.5 to 10 μM. The potent estrogen E2 was used as a reference control. […] The cell proliferation without E1±inhibitor (control) was fixed as 100%. To determine the potential antiestrogenic activity of inhibitor Compound V, the T-47D (ER^+) cells were grown in the presence of estrogen E2 (0.1 nM) and pure antiestrogen EM-139 (0.5 μM) or inhibitor Compound V (0.5 μM). The cell proliferation without E2 and tested compounds (control) were fixed as 100%.

T-47D cells [2] = assay: Inhibition of E1-stimulated T-47D cell proliferation; format: cell-based, human; details: control 100%
Method: as §2

Structure (SMILES)	relative binding affinity (RBA) (human ERα)	antiestrogenic activity (reversal of E2-induced proliferation) (T-47D cells [1])	cell growth, E1-induced (T-47D cells [2]; E1 0.1 nM + inhibitor 2.5 μM)	cell growth, E1-induced (T-47D cells [2]; E1 0.1 nM + inhibitor 5 μM)
C[C@]12CC[C@@H]3c4ccc(O)cc4CC[C@H]3[C@@H]1C[C@H](Cc1cccc(C(N)=O)c1)[C@@H]2O [Compound I, 16β-(m-carbamoylbenzyl)estradiol, reference compound]	1.5%	–	–	–
C[C@]12CC[C@@H]3c4ccc(CCBr)cc4CC[C@H]3[C@@H]1C[C@H](Cc1cccc(C(N)=O)c1)[C@@H]2O [Compound V, 3-{[(16β,17β)-3-(2-bromoethyl)-17-hydroxyestra-1(10),2,4-trien-16-yl]methyl}benzamide]	–	does not reverse the proliferative effect	156%	125%
